The target in experiment [1] is T1, human HDAC1 (hHDAC1) (Homo sapiens, UniProt Q13547). To be noted: read-out: hHDAC1 IC50; reference HDACi; ref [22]–[23]; cited from earlier work.
Experiment [2] concerns P. berghei exo-erythrocytic forms. The experiment is described as follows: P. berghei-Luc liver stage assay. The class given is cell-based. The following applies: for Selectivity index (SI) = (mammalian cell IC50)/(Pb EEF IC50): HepG2 vs Pb EEF; for IC50: Plasmodium berghei, 48 h, read-out: Pb EEF IC50.
The subject of another experiment is HepG2 cells. The experiment is described as follows: HepG2 cytotoxicity bioluminescence assay. Format: cell-based. To be noted: Homo sapiens, HepG2, 48 h, read-out: IC50 (HepG2).
Experiment [3] concerns the target T1, human HDAC1 (hHDAC1). Briefly: In vitro testing on hHDAC1.
Experiment [4] has as its system 3D7 line of P. falciparum. Briefly: P. falciparum asexual intraerythrocytic growth inhibition. Format: cell-based. The following applies: for IC50: Plasmodium falciparum.
The test system of experiment [5] is mature stage V P. falciparum gametocytes. Briefly: Gametocytocidal activity. The class given is cell-based. The following applies: Plasmodium falciparum, NF54, 48 h, read-out: Pf stage V gametocytes IC50.
The next experiment has as its target T2, human HDAC6 (hHDAC6) (Homo sapiens, UniProt Q9UBN7).
T2 sequence (Q9UBN7 1-1215): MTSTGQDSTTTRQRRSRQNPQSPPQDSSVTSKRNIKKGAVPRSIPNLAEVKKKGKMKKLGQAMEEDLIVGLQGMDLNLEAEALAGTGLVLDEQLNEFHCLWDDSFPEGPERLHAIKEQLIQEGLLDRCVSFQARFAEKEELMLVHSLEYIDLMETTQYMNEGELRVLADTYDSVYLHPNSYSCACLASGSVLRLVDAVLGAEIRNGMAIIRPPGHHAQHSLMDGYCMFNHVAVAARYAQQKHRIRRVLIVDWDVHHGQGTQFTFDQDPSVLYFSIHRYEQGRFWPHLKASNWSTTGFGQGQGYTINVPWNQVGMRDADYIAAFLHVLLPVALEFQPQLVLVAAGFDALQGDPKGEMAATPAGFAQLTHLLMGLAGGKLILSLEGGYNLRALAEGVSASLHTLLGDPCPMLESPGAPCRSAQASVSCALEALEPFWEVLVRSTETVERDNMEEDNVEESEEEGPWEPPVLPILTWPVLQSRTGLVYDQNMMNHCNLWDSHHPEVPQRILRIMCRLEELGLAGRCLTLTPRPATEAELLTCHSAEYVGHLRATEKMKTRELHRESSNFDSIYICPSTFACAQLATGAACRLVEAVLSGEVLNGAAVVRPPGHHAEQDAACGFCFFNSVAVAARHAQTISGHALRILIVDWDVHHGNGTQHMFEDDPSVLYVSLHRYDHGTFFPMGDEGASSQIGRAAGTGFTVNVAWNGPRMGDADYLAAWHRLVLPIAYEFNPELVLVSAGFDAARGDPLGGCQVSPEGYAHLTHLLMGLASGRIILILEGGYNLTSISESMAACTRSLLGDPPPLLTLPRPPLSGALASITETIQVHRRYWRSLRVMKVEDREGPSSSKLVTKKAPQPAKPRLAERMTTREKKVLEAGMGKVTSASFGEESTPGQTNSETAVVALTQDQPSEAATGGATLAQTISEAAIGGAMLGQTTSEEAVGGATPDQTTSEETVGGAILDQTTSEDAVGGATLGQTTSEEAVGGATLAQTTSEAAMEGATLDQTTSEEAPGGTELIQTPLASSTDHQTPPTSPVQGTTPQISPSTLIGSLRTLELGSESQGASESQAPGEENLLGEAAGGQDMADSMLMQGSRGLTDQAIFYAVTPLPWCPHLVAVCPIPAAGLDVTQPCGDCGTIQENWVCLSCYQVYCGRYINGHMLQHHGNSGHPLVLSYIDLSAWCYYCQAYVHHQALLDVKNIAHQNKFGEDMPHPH
Briefly: In vitro testing on hHDAC6.

Another experiment deals with P. falciparum histone H4. The experiment is described as follows: Protein hyperacetylation assay. The class given is cell-based. To be noted: trophozoite-stage Pf 3D7, 3 h, 5x IC50.
Where [6] appears, read: 3D7, read-out: IC50 (Pf3D7), asexual intraerythrocytic stage P. falciparum 3D7.

This is an account of results in publication PMC6502651 (ChemMedChem, 2019).

Molecules are shown by their SMILES. Where two headings read alike, the source gives them in different places.

By IC50 is commonly meant the midpoint of a concentration-inhibition curve.

T1 sequence (Q13547 whole entry): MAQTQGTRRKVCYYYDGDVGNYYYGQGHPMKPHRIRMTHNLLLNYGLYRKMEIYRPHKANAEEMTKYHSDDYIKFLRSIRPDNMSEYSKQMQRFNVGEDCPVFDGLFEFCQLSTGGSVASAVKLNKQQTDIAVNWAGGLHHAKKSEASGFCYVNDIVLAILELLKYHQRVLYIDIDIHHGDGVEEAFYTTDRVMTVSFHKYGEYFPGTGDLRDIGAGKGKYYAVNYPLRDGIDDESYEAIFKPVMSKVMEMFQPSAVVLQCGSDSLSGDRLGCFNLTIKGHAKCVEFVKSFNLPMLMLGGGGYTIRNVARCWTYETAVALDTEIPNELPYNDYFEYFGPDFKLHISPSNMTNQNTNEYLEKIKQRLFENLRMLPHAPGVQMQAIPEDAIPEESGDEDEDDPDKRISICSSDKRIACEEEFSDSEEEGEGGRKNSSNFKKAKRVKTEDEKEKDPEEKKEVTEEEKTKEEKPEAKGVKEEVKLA

As for `O=C(NO)c1ccc(CC(=O)N(CCO)c2ccccc2)cc1` [HPOB], at human HDAC1 (hHDAC1) [1], the concentration for half-maximal inhibition (IC50) was 2100 nM.

As to `CN(C)c1ccc(C(=O)N(Cc2ccc(C(=O)NO)cc2)C(C)(C)C(=O)NC2CCCCC2)cc1` [Compound 2c, N-(1-(Cyclohexylamino)-2-methyl-1-oxopropan-2-yl)-4-(dimethylamino)-N-(4-(hydroxycarbamoyl)benzyl)benzamide], the “Selectivity index (SI) = (mammalian cell IC50)/(Pb EEF IC50)” value in experiment [2] is reported as over 3. The 50% inhibitory concentration (IC50) in experiment [2] was 20100 nM; in the experiment on HepG2 cells, over 50000 nM; against human HDAC1 (hHDAC1) [3], 450 nM; in experiment [4] (setting [6]), 95 nM; in experiment [5], 16300 nM; against human HDAC6 (hHDAC6), 89 nM. The “Selectivity index (SI) = hHDAC1/hHDAC6” value on human HDAC6 (hHDAC6) was 5.

As to `COc1ccc(CNC(=O)CN(Cc2ccc(C(=O)NO)cc2)C(=O)c2cc(C)cc(C)c2)cc1` [Compound 2l, N-(4-(Hydroxycarbamoyl)benzyl)-N-(2-((4-methoxybenzyl)amino)-2-oxoethyl)-3,5-dimethylbenzamide], in experiment [2], the “Selectivity index (SI) = (mammalian cell IC50)/(Pb EEF IC50)” value came to 34 and the IC50 is 570 nM. Also, in experiment [5], the IC50 is 10200 nM.

On to `CN(C)c1ccc(C(=O)N(Cc2ccc(C(=O)NO)cc2)C(C(=O)NC2CCCCC2)c2ccccc2)cc1` (racemic) [Compound 2d, rac-N-(2-(Cyclohexylamino)-2-oxo-1-phenylethyl)-4-(dimethylamino)-N-(4-(hydroxycarbamoyl)benzyl)benzamide], for which the “Selectivity index (SI) = (mammalian cell IC50)/(Pb EEF IC50)” value in experiment [2] was over 3. Besides, the 50% inhibitory concentration (IC50) in experiment [2] was 19300 nM; with HepG2 cells, over 50000 nM; on human HDAC1 (hHDAC1) [3], 840 nM; in experiment [4] (setting [6]), 390 nM; in experiment [5] it was 14800 nM; at human HDAC6 (hHDAC6), 64 nM. The “Selectivity index (SI) = hHDAC1/hHDAC6” value at human HDAC6 (hHDAC6) turned out to be 13.

With `O=C(CCCCCCC(=O)Nc1ccccc1)NO` [SAHA, vorinostat, reference compound], the “histone acetylation compared to the vehicle control (in words)” value in the experiment on P. falciparum histone H4 was “significantly increased acetylation”. Besides, the IC50 in experiment [4] (3D7, read-out: IC50 (Pf3D7)) stood at 170 nM.

Consider `CNC(=O)CN(Cc1ccc(C(=O)NO)cc1)C(=O)c1cc(C)cc(C)c1` [Compound 2s, N-(4-(Hydroxycarbamoyl)benzyl)-3,5-dimethyl-N-(2-(methylamino)-2-oxoethyl)benzamide], for which the “Selectivity index (SI) = (mammalian cell IC50)/(Pb EEF IC50)” value in experiment [2] is reported as 7. In addition, the half-inhibitory concentration (IC50) turned out to be 7170 nM in experiment [2]; 48000 nM in the experiment with HepG2 cells; 290 nM at human HDAC1 (hHDAC1) [3]; 54 nM in experiment [4] (setting [6]); 16800 nM in experiment [5]; 44 nM on human HDAC6 (hHDAC6). The “Selectivity index (SI) = (mammalian cell IC50)/(P. falciparum IC50)” value in experiment [4] (HepG2 vs Pf3D7) is 889. In addition, at human HDAC6 (hHDAC6), the “Selectivity index (SI) = hHDAC1/hHDAC6” value worked out at 7.
